In publication PMC12040169 (PLOS Biology, 2025):

Assay: in vitro
Settings: human, hela cells
[1] = % viability, bulk resorufin, single well

| Compound | viability at 28.5 h, 10 µM (% viability) | also measured |
| --- | --- | --- |
| Cn1c2c(c(=O)[nH]c1=O)C1(O)C(=O)c3ccccc3C1(O)N2 (stereo not drawn) [CBK261683] | 105% |  |
| COc1ccc(O)c(CN2CCN(Cc3ccc(Cl)cc3)CC2)c1 [CBK263660] |  | viability at 28.5 h, 10 µM [1]: 110% |
| Cc1cccc(CN(CCCN(C)C)Cc2ccc(C)o2)n1 [CBK283187] | 98.2% |  |
| Cc1cc(Nc2ccccc2C)c2cc(C(=O)O)ccc2n1 [CBK269458C] | 103% |  |
| O=C(CC1CCCCC1)N1CCC2(CCCNC2)C1 (stereo not drawn) [CBK137154C] | 91.5% |  |
| Cc1c(C(=O)N2CCCC(c3cc4ncccc4[nH]3)C2)cnn1C (stereo not drawn) [CBK283420] | 94.8% |  |
| O=C(CNC(=O)c1ccc2c(c1)OCCO2)N/N=C/c1cccs1 [CBK261987] | 86.5% |  |
| c1ccc2c(OCc3nc4c5c6c(sc5ncn4n3)CCCCC6)cccc2c1 [CBK264151] | 99.6% |  |
| COC(=O)c1ccsc1NC(=O)CN1CCNCC1 [CBK057080] | 88.5% |  |
| COc1cc(Nc2cncc(-c3ccc(N)cc3)n2)cc(OC)c1OC [CBK065642] | 56.2% |  |
| CC(=O)N1c2ccc(-c3cn4cc(C)ccc4n3)cc2CC1C (stereo not drawn) [CBK285195] | 82.5% |  |
| CCC(c1ccc2ccccc2c1)c1c(O)c2ccccc2oc1=O (stereo not drawn) [CBK016681] | 96.7% |  |
| CSCCCNC(=O)N1CCN(Cc2ccccc2)CC1 [CBK155623] | 89.9% |  |
| CCc1[nH]c(=O)c(C(=O)N2CCc3[nH]c4c(C)cccc4c3C2)cc1C [CBK281586] | 97.6% |  |
| COC(=O)Nc1nc2cc(F)c(Cl)cc2[nH]1 [CBK026927] | 102% |  |
| CCn1cc(-c2cncn2CC(C)N2CCCCC2)cn1 (stereo not drawn) [CBK281556] | 103% |  |
| CC(N)Cc1cn(C)c2ccccc12 (stereo not drawn) [CBK012030C] |  | viability at 28.5 h, 10 µM: 83.8% |
| O=C(Cc1ccsc1)N1CCC(c2cc3cccnc3[nH]2)CC1 [CBK285000] | 85.6% |  |
| Cc1cc(CN(C)C(=O)c2cccc(NC(=O)C3CCCCC3)c2)no1 [CBK305722] | 92.6% |  |
| COc1cccc(C(=O)NCCC(=O)N2CCC3(CC2)CNC(=O)O3)c1 [CBK306803] | 88.2% |  |
| CCCC(=O)c1ccc(S(=O)(=O)N2CCCN(Cc3cc(Br)cs3)CC2)cc1 [CBK062896] | 91.2% |  |
| O=C(O)CCC(=O)NNC(=O)c1ccc(O)cc1 [CBK261353] | 105% |  |
| COc1ccc(C2Nc3ccccc3C(=O)N2Cc2ccccc2)cc1COc1ccc([N+](=O)[O-])cc1 (stereo not drawn) [CBK033690] | 86.9% |  |

| Compound | viability at 28.5 h, 10 µM (% viability) | also measured |
| --- | --- | --- |
| CCC(C)NC1=NC(=O)C(CC(=O)Nc2ccccc2Cl)S1 (stereo not drawn) [CBK059133T] | 97.3% |  |
| Cn1cccc1C(=O)N1CCC(Cc2ccccc2)CC1 [CBK200182] | 102% |  |
| c1cncc(CN2CCC(Oc3cncc(OCC4COc5ccccc5O4)n3)C2)c1 (stereo not drawn) [CBK084365] | 96.5% |  |
| O=C(O)c1ccc(S(=O)(=O)Nc2nnc(C(F)(F)F)s2)cc1 [CBK062023] | 91.5% |  |
| CCN(CC)CCNC(=O)N(CC)Cc1ccncc1 [CBK155151] | 105% |  |
| O=C(O)CCC(=O)Nc1cccc2ccccc12 [CBK260889] | 112% |  |
| COc1ccccc1N1CCN(C(=O)CCCC(=O)O)CC1 [CBK286904] | 80.8% |  |
| O=C(NO)c1nccnc1-c1ccc(COc2ccccc2)cc1 [CBK050841] | 96.4% |  |
| CCCC(C(=O)O)C(C)CC(=O)Nc1ccccc1Cl (stereo not drawn) [CBK286927] | 99.1% |  |
| O=C1N[C@@H]2CCN(Cc3cnccn3)C[C@H]2C/C=C/CC2(CCOCC2)C(=O)N[C@H]1Cc1ccccc1 [CBK292189] | 97.3% |  |
| COC(=O)c1ccccc1NC(=O)N1CCN(S(=O)(=O)c2ccc(Cl)cc2)CC1 [CBK266860] | 88% |  |
| NC(=O)Cn1cc(C(=O)COc2ccccc2)c2ccccc21 [CBK267650] |  | viability at 28.5 h, 10 µM [1]: 95.2% |
| Cc1cc2nccc([C@H]3CC[C@H](CNC(=O)C(C)C)CC3)n2n1 [CBK283475] | 94.9% |  |
| Cc1csc(C(Cc2cccs2)NC(=O)C2CCC(=O)N2)n1 (stereo not drawn) [CBK285056] | 104% |  |
| COc1ccc(Br)cc1C(=O)NC(=S)Nc1cc(Cl)c(O)c(Cl)c1 [CBK265979] | 89.6% |  |
| O=C(CSc1ncn(-c2ccccc2)n1)Nc1ccc(F)c(Cl)c1 [CBK267313] | 94.4% |  |
| CCn1cc(NC(=O)NC2CCN(c3ncccc3C#N)CC2)c(C)n1 [CBK307213] | 93.1% |  |
| CC1CCCC(C)N1S(=O)(=O)c1ccc(NC(=O)CCn2cnc3ccccc3c2=O)cc1 (stereo not drawn) [CBK267643] | 95.5% |  |
| O=C(Nc1ccccc1)O[C@@H]1CO[C@H]2[C@@H]1OC[C@@H]2Nc1nccc(-c2cccs2)n1 [CBK289513] | 97.8% |  |
| CC(C)NC(=O)NC[C@H]1C[C@@H]2CC[N@]1C[C@@H]2CN1CCN(c2ccccn2)CC1 [CBK289112] | 105% |  |
| Cc1[nH]c(=O)[nH]c(=O)c1CC(=O)N1Cc2cc(Cl)ccc2OC2(CCOCC2)C1 [CBK286341] | 93% |  |
| CN1CCCN(c2nccnc2-c2cccs2)CC1 [CBK088823] | 98.5% |  |
